This is an account of results in patent publication US8735384B2, “Amino heteroaryl compounds as beta-secretase modulators and methods of use” (Amgen Inc., priority 2010, dated 2014).

One assay addresses BACE1 (Homo sapiens, UniProt P56817). Description: In vitro enzymatic BACE FRET assay. As to conditions: beta secretase enzyme 0.2 nM, FRET substrate 50 nM, pH 4.2; read-out: BACE1 FRET assay (IC50 class). It counts as biochemical. An outline of the steps: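 Beta-secretase (0.2 nM) was pre-incubated 1 h with serially diluted inhibitor in 0.05 M acetate pH 4.2, 10% DMSO, 100 uM genapol. Then 50 nM quenched peptide FRET substrate was added for 1 h. The reaction was stopped with Tris to neutral pH and fluorescence read ([…]).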

For assay [1], the system named is Aβ40 in conditioned medium of cells stably expressing Amyloid Precursor Protein (APP). Description: In vitro BACE cell-based assay (HEK cell assay), Aβ40 sandwich ELISA. As to conditions: Homo sapiens, HEK293, 24 h, inhibition of Aβ40, 24 h incubation, read-out: HEK cell assay (IC50 class). The method in brief:
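APP-stably expressing cells (40K/well) grown 24 h, then treated 24 h with 10-point doses from 100 μM or 10 μM top (0.1% DMSO). Secreted Aβ40 quantified by sandwich ELISA (pAb40 capture, biotinylated 6E10 detection, europium time-resolved fluorescence); IC50 from percent inhibition versus concentration.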

SMILES strings stand for the structures. pIC50: −log10 of the molar value. A value given as a limit tells only on which side of the number the result lay.

Chain of BACE1 (P56817 46-501, species assumed): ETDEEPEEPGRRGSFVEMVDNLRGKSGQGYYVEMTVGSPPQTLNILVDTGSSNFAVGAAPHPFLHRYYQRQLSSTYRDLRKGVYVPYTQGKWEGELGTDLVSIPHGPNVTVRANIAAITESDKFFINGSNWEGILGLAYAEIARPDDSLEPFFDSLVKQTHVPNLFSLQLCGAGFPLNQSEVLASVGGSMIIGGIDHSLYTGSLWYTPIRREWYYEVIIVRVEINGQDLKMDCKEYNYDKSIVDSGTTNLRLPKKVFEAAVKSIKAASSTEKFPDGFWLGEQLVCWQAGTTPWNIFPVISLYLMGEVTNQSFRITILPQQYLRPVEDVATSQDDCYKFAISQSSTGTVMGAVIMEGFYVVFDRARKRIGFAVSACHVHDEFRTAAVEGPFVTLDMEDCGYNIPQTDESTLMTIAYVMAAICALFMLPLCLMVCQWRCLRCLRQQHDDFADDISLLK

`Cc1cnc(-c2cccc(C)c2-c2ccc3nc(N)c(N4CCOCC4)cc3c2)o1` [Example 32, 6-(2-methyl-6-(5-methyloxazol-2-yl)phenyl)-3-morpholinoquinolin-2-amine]: the pIC50 on BACE1 is 5.30 to 6.00; in assay [1] it was less than 5.30.
In the same order, the values of `Cc1ccc(C(=O)N2CCCC2)c(-c2ccc3nc(N)c(N4CCOCC4)cc3c2)c1` [Example 150, (2-(2-amino-3-morpholinoquinolin-6-yl)-4-methylphenyl)(pyrrolidin-1-yl)methanone] are greater than 7.00 and 6.30 to 7.00.
For `Cc1cccc(C(=O)c2ccccn2)c1-c1ccc2nc(N)c(C3CCOCC3)cc2c1` [Example 38, (2-(2-amino-3-(tetrahydro-2H-pyran-4-yl)quinolin-6-yl)-3-methylphenyl)(pyridin-2-yl)methanone], in that order: greater than 7.00 and 6.30 to 7.00.
In the case of `Cc1cccc(C(=O)N(C)CCc2ccccc2)c1-c1ccc2nc(N)c(N3CCOCC3)cc2c1` [Example 137, 2-(2-amino-3-morpholinoquinolin-6-yl)-N,3-dimethyl-N-phenethylbenzamide], the pIC50 was 6.30 to 7.00 at BACE1 and 5.30 to 6.00 in assay [1].
For `Cc1cccc(C(=O)N2CCC2)c1-c1ccc2nc(N)c(N3CCOCC3)cc2c1` [Example 103, (2-(2-amino-3-morpholinoquinolin-6-yl)-3-methylphenyl)(azetidin-1-yl)methanone], in that order: 6.30 to 7.00 and 6.00 to 6.30.
`C#CCN(C)C(=O)c1cccc(C)c1-c1ccc2nc(N)c(N3CCOCC3)cc2c1` [Example 108, 2-(2-amino-3-morpholinoquinolin-6-yl)-N,3-dimethyl-N-(prop-2-ynyl)benzamide]: the results for the pIC50 (at BACE1; in assay [1]) were greater than 7.00 and 6.00 to 6.30, respectively.
For `Cc1cccc(C(=O)N(C)C2CCC(C)CC2)c1-c1ccc2nc(N)c(N3CCOCC3)cc2c1` (centres unmarked) [Example 122, 2-(2-amino-3-morpholinoquinolin-6-yl)-N,3-dimethyl-N-(4-methylcyclohexyl)benzamide], in that order: greater than 7.00 and 6.00 to 6.30.
`COc1ccc(C(=O)c2cccc(C)c2-c2ccc3nc(N)c(N4CCOCC4)cc3c2)cc1` [Example 175, (2-(2-amino-3-morpholinoquinolin-6-yl)-3-methylphenyl)(4-methoxyphenyl)methanone]: the negative-log IC50 (pIC50) on BACE1 is greater than 7.00; in assay [1] it was 5.30 to 6.00.
In the same order, the values of `CCC1CCCN1C(=O)c1cccc(C)c1-c1ccc2nc(N)c(N3CCOCC3)cc2c1` (centres unmarked) [Example 65, (2-(2-amino-3-morpholinoquinolin-6-yl)-3-methylphenyl)(2-ethylpyrrolidin-1-yl)methanone] are greater than 7.00 and 6.00 to 6.30.
For `Cc1cccc(C(=O)c2ncccc2Cl)c1-c1ccc2nc(N)c(N3CCOCC3)cc2c1` [Example 159, (2-(2-amino-3-morpholinoquinolin-6-yl)-3-methylphenyl)(3-chloropyridin-2-yl)methanone], in that order: greater than 7.00 and 6.00 to 6.30.
For `COCCC1CCN(C(=O)c2cccc(C)c2-c2ccc3nc(N)c(N4CCOCC4)cc3c2)CC1` [Example 75, (2-(2-amino-3-morpholinoquinolin-6-yl)-3-methylphenyl)(4-(2-methoxyethyl)piperidin-1-yl)methanone], in that order: 6.30 to 7.00 and 5.30 to 6.00.
For `Cc1cccc(C(=O)N2CCCC2)c1-c1ccc2nc(N)c(C3CCCO3)cc2c1` (centres unmarked) [Example 207, (2-(2-amino-3-(tetrahydrofuran-2-yl)quinolin-6-yl)-3-methylphenyl)(pyrrolidin-1-yl)methanone], the values for the pIC50 (on BACE1; in assay [1]) were 6.30 to 7.00 and 5.30 to 6.00, respectively.
In the same order, the values of `Cc1cccc(C(=O)N2CCCC(C)C2)c1-c1ccc2nc(N)c(N3CCOCC3)cc2c1` (centres unmarked) [Example 115, (2-(2-amino-3-morpholinoquinolin-6-yl)-3-methylphenyl)(3-methylpiperidin-1-yl)methanone] are greater than 7.00 and 6.00 to 6.30.
For `Cc1ccccc1-c1ccc2nc(N)c(N3CCOCC3)cc2c1` [Example 218, 3-morpholino-6-o-tolylquinolin-2-amine], in that order: 6.00 to 6.30 and less than 5.30.
For `Cc1cccc(-c2ncc3ccccn23)c1-c1ccc2nc(N)c(N3CCOCC3)cc2c1` [Example 30, 6-(2-(imidazo[1,5-a]pyridin-3-yl)-6-methylphenyl)-3-morpholinoquinolin-2-amine], in that order: 6.30 to 7.00 and 5.30 to 6.00.
Turning to `Cc1cccc(C(c2ccccc2)n2ccnc2)c1-c1ccc2nc(N)c(N3CCOCC3)cc2c1` (centres unmarked) [Example 8, 6-(2-((1H-imidazol-1-yl)(phenyl)methyl)-6-methylphenyl)-3-morpholinoquinolin-2-amine], the pIC50 (at BACE1; in assay [1]) was 5.30 to 6.00 in each case.
Consider `Cc1cccc(C(=O)N2C[C@H]3CC[C@@H]2C3)c1-c1ccc2nc(N)c(N3CCOCC3)cc2c1` [Example 68, (2-(2-amino-3-morpholinoquinolin-6-yl)-3-methylphenyl)((1R,4S)-2-azabicyclo[2.2.1]heptan-2-yl)methanone], for which the pIC50 was greater than 7.00 on BACE1 and 6.30 to 7.00 in assay [1].
For the molecule `COCCC1CN(c2cc3cc(-c4c(C)cccc4C(=O)N4CCCC4)ccc3nc2N)CCO1` (centres unmarked) [Example 214, (2-(2-amino-3-(2-(2-methoxyethyl)morpholino)quinolin-6-yl)-3-methylphenyl)(pyrrolidin-1-yl)methanone], the pIC50 at BACE1 was greater than 7.00; in assay [1], 6.30 to 7.00.
In the same order, the values of `Cc1cccc(C(=O)N(C)C(C)(C)C)c1-c1ccc2nc(N)c(N3CCOCC3)cc2c1` [Example 123, 2-(2-amino-3-morpholinoquinolin-6-yl)-N-tert-butyl-N,3-dimethylbenzamide] are greater than 7.00 and 6.00 to 6.30.
For `Nc1nc2ccc(-c3c(CC4OCCO4)cccc3C(=O)N3CCCC3)cc2cc1N1CCOCC1` [Example 192, (3-((1,3-dioxolan-2-yl)methyl)-2-(2-amino-3-morpholinoquinolin-6-yl)phenyl)(pyrrolidin-1-yl)methanone], in that order: greater than 7.00 and 6.30 to 7.00.
As to `Nc1nc2ccc(-c3c(Cl)cccc3C(=O)N3CCCCC3)cc2cc1N1CCOCC1` [Example 143, (2-(2-amino-3-morpholinoquinolin-6-yl)-3-chlorophenyl)(piperidin-1-yl)methanone], the values for the pIC50 (on BACE1; in assay [1]) were greater than 7.00 and 5.30 to 6.00, respectively.
In the same order, the values of `Cc1cccc(C(=O)N2CC[C@@H](F)C2)c1-c1ccc2nc(N)c(N3CCOCC3)cc2c1` [Example 69, (R)-(2-(2-amino-3-morpholinoquinolin-6-yl)-3-methylphenyl)(3-fluoropyrrolidin-1-yl)methanone] are greater than 7.00 and 6.30 to 7.00.
Take `Cc1ccc(C(=O)c2cccc(C)c2-c2ccc3nc(N)c(N4CCOCC4)cc3c2)cc1` [Example 178, (2-(2-amino-3-morpholinoquinolin-6-yl)-3-methylphenyl)(p-tolyl)methanone]: the pIC50 was greater than 7.00 at BACE1 and 5.30 to 6.00 in assay [1].
For the molecule `Cc1cccnc1C(N)c1cccc(C)c1-c1ccc2nc(N)c(N3CCOCC3)cc2c1` (centres unmarked) [Example 194, 6-(2-(amino(3-methylpyridin-2-yl)methyl)-6-methylphenyl)-3-morpholinoquinolin-2-amine], the pIC50 on BACE1 is 6.00 to 6.30; in assay [1] it was 6.30 to 7.00.
For `COc1ccccc1N(C)C(=O)c1cccc(C)c1-c1ccc2nc(N)c(N3CCOCC3)cc2c1` [Example 139, 2-(2-amino-3-morpholinoquinolin-6-yl)-N-(2-methoxyphenyl)-N,3-dimethylbenzamide], in that order: greater than 7.00 and 5.30 to 6.00.
For `Cc1cccc(C(=O)N2CCCC2)c1-c1ccc2nc(N)c(C3=CCCC3)cc2c1` [Example 57, (2-(2-amino-3-cyclopentenylquinolin-6-yl)-3-methylphenyl)(pyrrolidin-1-yl)methanone], in that order: 6.30 to 7.00 and 5.30 to 6.00.
For `CCOC(=O)c1cc(F)cc(C)c1-c1ccc2nc(N)c(N3CCOCC3)cc2c1` [Example 129, ethyl 2-(2-amino-3-morpholinoquinolin-6-yl)-5-fluoro-3-methylbenzoate], in that order: 6.30 to 7.00 and 5.30 to 6.00.
Turning to `Cc1cccc(C(c2ccccc2)N2CCCC2)c1-c1ccc2nc(N)c(N3CCOCC3)cc2c1` (centres unmarked) [Example 9, 6-(2-methyl-6-(phenyl(pyrrolidin-1-yl)methyl)phenyl)-3-morpholinoquinolin-2-amine], the figures for the pIC50 (on BACE1; in assay [1]) were 6.00 to 6.30 and 6.30 to 7.00, respectively.
As to `COCC1CCN(C(=O)c2cccc(C)c2-c2ccc3nc(N)c(N4CCOCC4)cc3c2)CC1` [Example 73, (2-(2-amino-3-morpholinoquinolin-6-yl)-3-methylphenyl)(4-(methoxymethyl)piperidin-1-yl)methanone], the pIC50 is 6.30 to 7.00 at BACE1 and 5.30 to 6.00 in assay [1].
In the same order, the values of `Cc1cccc(C(=O)N2CCCC2C(C)C)c1-c1ccc2nc(N)c(N3CCOCC3)cc2c1` (centres unmarked) [Example 66, (2-(2-amino-3-morpholinoquinolin-6-yl)-3-methylphenyl)(2-isopropylpyrrolidin-1-yl)methanone] are greater than 7.00 and 6.30 to 7.00.
In the same order, the values of `Cc1cccc(C(=O)N2CCC(F)CC2)c1-c1ccc2nc(N)c(N3CCOCC3)cc2c1` [Example 95, (2-(2-amino-3-morpholinoquinolin-6-yl)-3-methylphenyl)(4-fluoropiperidin-1-yl)methanone] are greater than 7.00 and 5.30 to 6.00.
